Results on four compounds are retold here after article PMC10907298 (Nature chemical biology, 2023).

One may read the AC50 as the concentration at which the activity in the assay is half-maximal. A high value points to weaker potency.

SMILES strings stand for the structures. Values joined by “and” are separate entries in the source; they are usually repeats but may differ in a detail not shown here. Equal values may be shown once.

For one experiment, the system named is BMDM, WT mSTING. Kind of experiment: IP10 induction in bone marrow-derived macrophages. It counts as cell-based, mouse. As to conditions: 50μM, n=1.
The subject of experiment [1] is BMDM, human STING knock-in. In words: IP10 induction in bone marrow-derived macrophages. As to conditions: 50μM, n=1. It counts as cell-based, mouse.
A further experiment deals with BMDM, mSTING Indel/Indel. In words: IP10 induction in bone marrow-derived macrophages. The settings on record: 50μM, n=1. The class given is cell-based, mouse.
In the next experiment the target is human STING (Homo sapiens, UniProt Q86WV6, G230A/R293Q/R71H). Kind of experiment: THP1-Dual ISRE-Luc reporter gene assay (primary screen and dose response). The settings on record: for THP1-Dual reporter activity: single replicates (n=2); for AC50: THP1-Dual ISRE-Luc Assay. On the technique in general: In a reporter assay the amount or activity of a reporter protein is the signal.
Chain of human STING (Q86WV6 whole entry R71H/G230A/R293Q): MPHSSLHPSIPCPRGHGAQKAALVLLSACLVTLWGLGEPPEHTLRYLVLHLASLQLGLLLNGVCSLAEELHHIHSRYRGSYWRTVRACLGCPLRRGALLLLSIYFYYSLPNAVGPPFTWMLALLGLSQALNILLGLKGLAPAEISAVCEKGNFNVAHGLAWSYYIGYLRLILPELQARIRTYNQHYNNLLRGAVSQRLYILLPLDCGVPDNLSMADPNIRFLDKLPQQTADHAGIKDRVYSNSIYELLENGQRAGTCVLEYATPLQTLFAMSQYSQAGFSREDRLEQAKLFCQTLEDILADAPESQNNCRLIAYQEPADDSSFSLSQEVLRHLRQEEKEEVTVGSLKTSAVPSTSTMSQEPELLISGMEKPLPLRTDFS

In another experiment the target is STING(TMEM173) (Homo sapiens, UniProt Q86WV6, G230A/R293Q/R71H). In words: photoaffinity labeling and competition chemoproteomics in THP-1 cells. It counts as binding.
Chain of STING(TMEM173) (Q86WV6 whole entry R71H/G230A/R293Q): as above
For another experiment, the target named is SYNE2 Nesprin-2 (Homo sapiens, UniProt Q8WXH0). The description is as above. It counts as binding.
The target in experiment [2] is TXNDC12 Thioredoxin domain-containing protein 12 (Homo sapiens, UniProt O95881). Described as above. It counts as binding.
Chain of TXNDC12 Thioredoxin domain-containing protein 12 (O95881 27-172): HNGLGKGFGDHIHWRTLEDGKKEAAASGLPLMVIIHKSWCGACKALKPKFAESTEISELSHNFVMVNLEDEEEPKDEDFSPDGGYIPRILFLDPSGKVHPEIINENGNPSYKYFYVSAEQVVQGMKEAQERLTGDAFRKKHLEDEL
Experiment [3] addresses SLC25A13 Calcium-binding mitochondrial carrier protein Aralar2 (Homo sapiens, UniProt Q9UJS0). Described as above.
In a further experiment the target is RABL6 Rab-like protein 6 (Homo sapiens, UniProt Q3YEC7). The experiment is described as above. It counts as binding.
Chain of RABL6 Rab-like protein 6 (Q3YEC7 whole entry): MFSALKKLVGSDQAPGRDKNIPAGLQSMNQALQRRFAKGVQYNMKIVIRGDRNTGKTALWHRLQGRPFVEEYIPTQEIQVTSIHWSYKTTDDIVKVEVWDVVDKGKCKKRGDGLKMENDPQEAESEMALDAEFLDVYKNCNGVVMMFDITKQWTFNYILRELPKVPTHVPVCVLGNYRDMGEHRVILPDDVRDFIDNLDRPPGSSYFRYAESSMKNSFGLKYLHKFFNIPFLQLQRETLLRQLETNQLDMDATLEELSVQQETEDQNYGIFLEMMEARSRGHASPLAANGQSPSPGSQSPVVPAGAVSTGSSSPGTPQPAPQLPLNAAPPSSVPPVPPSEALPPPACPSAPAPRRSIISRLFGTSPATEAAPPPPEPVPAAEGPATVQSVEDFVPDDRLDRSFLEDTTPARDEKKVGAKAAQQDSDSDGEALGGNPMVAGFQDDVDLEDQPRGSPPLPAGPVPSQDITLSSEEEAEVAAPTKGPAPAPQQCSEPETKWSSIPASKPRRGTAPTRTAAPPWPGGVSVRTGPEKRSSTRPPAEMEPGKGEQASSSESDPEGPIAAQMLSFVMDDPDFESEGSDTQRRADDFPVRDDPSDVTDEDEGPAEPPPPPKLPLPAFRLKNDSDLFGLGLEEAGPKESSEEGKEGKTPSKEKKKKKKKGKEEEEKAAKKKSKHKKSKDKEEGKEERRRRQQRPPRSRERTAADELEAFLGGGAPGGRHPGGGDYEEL
In another experiment the target is human STING (WT) (Homo sapiens, UniProt Q86WV6). In words: ISRE reporter assay with STING co-transfection in HEK293T cells. The class given is cell-based. As to conditions: hSTING, Figure S1f.
Chain of human STING (WT) (Q86WV6 whole entry): as the sequence (Q86WV6 whole entry R71H/G230A/R293Q) above, with H71R, A230G, Q293R counted along it
The target of experiment [4] is hSTING(1–153)–mSTING(153–378) chimera (Homo sapiens, UniProt Q86WV6, A215V/A300E/A302V/A313V/A318T/A350V/D237N/D297E/D320G/E174G/E362R/E369D/G230I/G344N/H185L/H232R/I244V/K224M/K347M/K370Q/L189M/L202F/L222R/L247I/L333I/L346P/M214V/M357L/Q196R/Q276K/Q306R/R191S/R253P/S275A/S321N/S345A/S353P/T181M/T229N/T256V/T354P/T356V/V194G/V258I/V343M/V351A/Y182F/Y186H/Y274D). The experiment is described as above. The class given is cell-based, human/mouse. As to conditions: for ISRE reporter activity, mean: h(1-153)/m(153-378)STING, Figure S1f.
Chain of hSTING(1–153)–mSTING(153–378) chimera (Q86WV6 with tags, fused parts or gaps with the stated changes): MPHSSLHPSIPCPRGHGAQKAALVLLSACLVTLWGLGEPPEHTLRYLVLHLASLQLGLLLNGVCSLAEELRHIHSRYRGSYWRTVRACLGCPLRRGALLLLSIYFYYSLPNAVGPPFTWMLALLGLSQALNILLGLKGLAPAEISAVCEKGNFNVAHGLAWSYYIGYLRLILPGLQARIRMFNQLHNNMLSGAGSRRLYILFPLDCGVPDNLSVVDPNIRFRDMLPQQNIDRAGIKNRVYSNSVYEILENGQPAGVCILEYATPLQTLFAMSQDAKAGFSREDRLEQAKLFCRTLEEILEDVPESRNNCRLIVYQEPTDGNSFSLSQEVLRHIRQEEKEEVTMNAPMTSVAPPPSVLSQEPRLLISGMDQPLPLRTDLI

Chain of SLC25A13 Calcium-binding mitochondrial carrier protein Aralar2 (Q9UJS0 whole entry): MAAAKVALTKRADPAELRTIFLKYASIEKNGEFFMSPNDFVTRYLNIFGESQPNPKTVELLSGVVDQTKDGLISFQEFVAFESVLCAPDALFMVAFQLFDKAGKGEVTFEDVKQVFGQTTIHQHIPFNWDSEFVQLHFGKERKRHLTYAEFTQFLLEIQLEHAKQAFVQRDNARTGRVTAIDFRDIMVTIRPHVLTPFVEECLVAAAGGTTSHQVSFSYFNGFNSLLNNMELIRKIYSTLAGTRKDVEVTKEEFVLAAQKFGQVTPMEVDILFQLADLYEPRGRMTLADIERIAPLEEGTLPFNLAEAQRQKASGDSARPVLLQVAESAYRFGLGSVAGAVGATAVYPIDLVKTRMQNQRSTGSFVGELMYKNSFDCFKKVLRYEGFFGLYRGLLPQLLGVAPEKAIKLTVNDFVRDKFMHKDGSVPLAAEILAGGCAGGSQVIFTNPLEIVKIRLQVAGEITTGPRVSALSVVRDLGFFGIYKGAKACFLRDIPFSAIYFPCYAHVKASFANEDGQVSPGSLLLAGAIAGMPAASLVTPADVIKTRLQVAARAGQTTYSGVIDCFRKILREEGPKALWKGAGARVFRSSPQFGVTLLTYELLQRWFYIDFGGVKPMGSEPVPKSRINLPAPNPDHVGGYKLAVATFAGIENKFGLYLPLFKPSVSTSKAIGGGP

Consider `Nc1nc2c(ncn2[C@@H]2O[C@@H]3COP(=O)(O)O[C@H]4[C@@H](O)[C@H](n5cnc6c(N)ncnc65)O[C@@H]4COP(=O)(O)O[C@@H]2[C@@H]3O)c(=O)[nH]1` [cGAMP, 2’,3’-cGMP-AMP, reference compound], for which the IP10 in the experiment with BMDM, WT mSTING amounted to 3440.25 pg/mL; in [1] (BMDM hSTING+/+), 2945 pg/mL; in [1] (BMDM hSTING+/indel), 1331.5 pg/mL; with BMDM, mSTING Indel/Indel, 0 pg/mL.

As to `CNc1ccccc1CS(=O)(=O)NC(=O)c1ccc(NCc2ccc(C3(C(C)(C)C)OCC(C)(C)CO3)cc2)c(OC)c1` [NVS-STG3], the THP1-Dual reporter activity is -1.082 and 21.604 on human STING (97.7 nM); -3.144 and -12.05 at human STING (195 nM); -15.339 and 25.944 at human STING (391 nM); 62.36 and 63.63 at human STING (781 nM); 1502.2 and 1735.82 on human STING (1563 nM); 6139.8 and 5609.9 on human STING (3125 nM). Moreover, the THP1-Dual reporter activity at human STING (6250 nM) is 8825.5 and 7956; on human STING (12500 nM), 8733.31 and 7877.19. Moreover, half-maximal activity at human STING (AC50) was put at 2.7 µM. The “competition of NVS-STG4 labeling in words” value at STING(TMEM173) (20 μM competitor, 1 μM NVS-STG4) is listed as “competed”.

Turning to `C#CCCC1(CCC(=O)NCCCS(=O)(=O)NC(=O)c2ccc(NCc3ccc(C4(C(C)(C)C)OCC(C)(C)CO4)cc3)c(OC)c2)N=N1` [NVS-STG4], the “Abundance Ratio (log2): (DMSO) / (NJC652)” value on SYNE2 Nesprin-2 is reported as 0.26; in experiment [2], -0.18; in experiment [3], -0.21; at RABL6 Rab-like protein 6, 0.01; on STING(TMEM173) (TMEM173), -1.82. The THP1-Dual reporter activity on human STING (97.7 nM) is -53.887 and -41.218; on human STING (195 nM), -52.59 and -42.841; on human STING (391 nM) it was -38.43 and -29.964; at human STING (781 nM) it was -39.736 and -25.431; on human STING (1563 nM), -32.277 and -48.463; on human STING (3125 nM) it was -20.873 and -28.245. Further, the THP1-Dual reporter activity on human STING (6250 nM) was 1623.13 and 1111.27; at human STING (12500 nM), 4114.59 and 3953.84; at human STING (25000 nM), 2243.38 and 2653.78. The compound further showed a concentration at half-maximal activity (AC50) on human STING of 6.9 µM. Besides, the “enrichment of STING(TMEM173) over no probe control” value at STING(TMEM173) (1 μM probe, pull-down) was “over 2 fold”.

As for `Cc1ccc2c(=O)c3cccc(CC(=O)O)c3oc2c1C` [DMXAA, 5,6-dimethylxanthenone-4-acetic acid, reference compound], the “ISRE reporter activity, mean” value turned out to be 1.3 on human STING (WT) (Log[μM] 0); 1.4 at human STING (WT) (Log[μM] 0.3); 1.2 on human STING (WT) (Log[μM] 0.6); 1.3 at human STING (WT) (Log[μM] 0.9); 1 at human STING (WT) (Log[μM] 1.2); 1.6 on human STING (WT) (Log[μM] 1.5). Further, the “ISRE reporter activity, mean” value at human STING (WT) (Log[μM] 1.8) is 1.2; on human STING (WT) (Log[μM] 2.1), 1.4; at human STING (WT) (Log[μM] 2.4), 1.5; at human STING (WT) (Log[μM] 2.7), 1.9; in experiment [4] (Log[μM] 0) it was 0.7; in experiment [4] (Log[μM] 0.3), 0.7. For the same compound, the “ISRE reporter activity, mean” value in [4] (Log[μM] 0.6) is 0.7; in experiment [4] (Log[μM] 0.9), 0.9; in experiment [4] (Log[μM] 1.2), 9.4; in experiment [4] (Log[μM] 1.5), 82.5; in [4] (Log[μM] 1.8), 101.1; in experiment [4] (Log[μM] 2.1) it was 106.7. In addition, in experiment [4] (Log[μM] 2.4), the “ISRE reporter activity, mean” value stood at 109.5. For the same compound, the “STING activation in words” value in experiment [4] (hSTING TMD–mSTING LBD chimera) was “responded fully”.
